# Key:
# Test in all cases: relative viability (nuclei count vs DMSO), 5 days (fraction); higher = more cells survive
# [1] = compound: C1/C(=C\C2=CC=CS2)/C(=O)/C(=C/C3=CC=CS3)/C1 + CS(=O)(=O)CCNCc1ccc(-c2ccc3ncnc(Nc4ccc(OCc5cccc(F)c5)c(Cl)c4)c3c2)o1 [Lapatinib] (partner 2 µM)
# Procedure, shortened: (§1)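 Medians of duplicate plates are given as relative viability. That measure is the nuclei count in treated wells divided by the count in vehicle wells. Counts were taken on 4× images of lung cancer cell lines in 1536-well plates, 5 days after pin-tool dosing the day after seeding with one drug alone or a fixed anchor-drug dose plus five library-drug doses (not always all listed) in √10 steps.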
# [2] = compound: C[C@]12O[C@H](C[C@]1(O)CO)n1c3ccccc3c3c4c(c5c6ccccc6n2c5c31)CNC4=O [Lestaurtinib] + CC(=O)Nc1cccc(-n2c(=O)n(C3CC3)c(=O)c3c(Nc4ccc(I)cc4F)n(C)c(=O)c(C)c32)c1 [Trametinib] (partner 0.02 µM)
# Procedure, shortened: as §1
# [3] = compound: C[C@]12O[C@H](C[C@]1(O)CO)n1c3ccccc3c3c4c(c5c6ccccc6n2c5c31)CNC4=O [Lestaurtinib] + CC(=O)c1c(C)c2cnc(Nc3ccc(N4CCNCC4)cn3)nc2n(C2CCCC2)c1=O [Palbociclib] (partner 0.5 µM)
# Procedure, shortened: as §1
# [4] = compound: C[C@]12O[C@H](C[C@]1(O)CO)n1c3ccccc3c3c4c(c5c6ccccc6n2c5c31)CNC4=O [Lestaurtinib] + C[C@@H](Oc1cc(-c2cnn(C3CCNCC3)c2)cnc1N)c1c(Cl)ccc(F)c1Cl [Crizotinib] (partner 1 µM)
# Procedure, shortened: as §1
cell line,measurement,setting,value
HCC-44,relative viability,[1]; first compound 0.2 µM,0.979
same,relative viability,[1]; first compound 0.6325 µM,1.02
same,relative viability,[1]; first compound 2 µM,1
same,relative viability,[1]; first compound 6.325 µM,0.728
same,relative viability,[1]; first compound 20 µM,0.975
same,relative viability,[2]; first compound 0.005 µM,1.04
same,relative viability,[2]; first compound 0.01581 µM,1.04
same,relative viability,[2]; first compound 0.05 µM,1.04
same,relative viability,[2]; first compound 0.1581 µM,1.16
same,relative viability,[2]; first compound 0.5 µM,0.593
same,relative viability,[3]; first compound 0.005 µM,0.958
same,relative viability,[3]; first compound 0.01581 µM,1
same,relative viability,[3]; first compound 0.05 µM,1.04
same,relative viability,[3]; first compound 0.1581 µM,1.1
same,relative viability,[3]; first compound 0.5 µM,0.732
same,relative viability,[4]; first compound 0.005 µM,0.878
same,relative viability,[4]; first compound 0.01581 µM,0.822
same,relative viability,[4]; first compound 0.05 µM,0.685
same,relative viability,[4]; first compound 0.1581 µM,0.929
same,relative viability,[4]; first compound 0.5 µM,0.607
SW 1573,relative viability,[1]; first compound 0.2 µM,1.07
same,relative viability,[1]; first compound 0.6325 µM,1.15
same,relative viability,[1]; first compound 2 µM,1.17
same,relative viability,[1]; first compound 6.325 µM,1.09
same,relative viability,[1]; first compound 20 µM,1.03
same,relative viability,[2]; first compound 0.005 µM,0.712
same,relative viability,[2]; first compound 0.01581 µM,0.672
same,relative viability,[2]; first compound 0.05 µM,0.491
same,relative viability,[2]; first compound 0.1581 µM,0.367
same,relative viability,[2]; first compound 0.5 µM,0.144
same,relative viability,[3]; first compound 0.005 µM,0.373
same,relative viability,[3]; first compound 0.01581 µM,0.385
same,relative viability,[3]; first compound 0.05 µM,0.298
same,relative viability,[3]; first compound 0.1581 µM,0.306
same,relative viability,[3]; first compound 0.5 µM,0.113
same,relative viability,[4]; first compound 0.005 µM,0.929
same,relative viability,[4]; first compound 0.01581 µM,0.88
same,relative viability,[4]; first compound 0.05 µM,0.544
same,relative viability,[4]; first compound 0.1581 µM,0.423
same,relative viability,[4]; first compound 0.5 µM,0.343
PC-3 [JPC-3],relative viability,[1]; first compound 0.2 µM,0.445
same,relative viability,[1]; first compound 0.6325 µM,0.406
same,relative viability,[1]; first compound 2 µM,0.512
same,relative viability,[1]; first compound 6.325 µM,0.461
same,relative viability,[1]; first compound 20 µM,0.446
same,relative viability,[2]; first compound 0.005 µM,0.766
same,relative viability,[2]; first compound 0.01581 µM,0.709
same,relative viability,[2]; first compound 0.05 µM,0.779
same,relative viability,[2]; first compound 0.1581 µM,0.575
same,relative viability,[2]; first compound 0.5 µM,0.585
same,relative viability,[3]; first compound 0.005 µM,0.531
same,relative viability,[3]; first compound 0.01581 µM,0.611
same,relative viability,[3]; first compound 0.05 µM,0.557
same,relative viability,[3]; first compound 0.1581 µM,0.575
same,relative viability,[3]; first compound 0.5 µM,0.544
same,relative viability,[4]; first compound 0.005 µM,0.975
same,relative viability,[4]; first compound 0.01581 µM,1.15
same,relative viability,[4]; first compound 0.05 µM,1.01
same,relative viability,[4]; first compound 0.1581 µM,1.15
same,relative viability,[4]; first compound 0.5 µM,0.693
LOU-NH91,relative viability,[1]; first compound 0.2 µM,0.744
same,relative viability,[1]; first compound 0.6325 µM,0.821
same,relative viability,[1]; first compound 2 µM,0.782
same,relative viability,[1]; first compound 6.325 µM,0.607
same,relative viability,[1]; first compound 20 µM,0.802
same,relative viability,[2]; first compound 0.005 µM,0.759
same,relative viability,[2]; first compound 0.01581 µM,0.749
same,relative viability,[2]; first compound 0.05 µM,0.679
same,relative viability,[2]; first compound 0.1581 µM,0.625
same,relative viability,[2]; first compound 0.5 µM,0.548
same,relative viability,[3]; first compound 0.005 µM,0.567
same,relative viability,[3]; first compound 0.01581 µM,0.524
same,relative viability,[3]; first compound 0.05 µM,0.586
same,relative viability,[3]; first compound 0.1581 µM,0.558
same,relative viability,[3]; first compound 0.5 µM,0.522
same,relative viability,[4]; first compound 0.005 µM,0.755
same,relative viability,[4]; first compound 0.01581 µM,0.718
same,relative viability,[4]; first compound 0.05 µM,0.627
same,relative viability,[4]; first compound 0.1581 µM,0.547
same,relative viability,[4]; first compound 0.5 µM,0.469
PC-14,relative viability,[1]; first compound 0.2 µM,0.352
same,relative viability,[1]; first compound 0.6325 µM,0.362
same,relative viability,[1]; first compound 2 µM,0.353
same,relative viability,[1]; first compound 6.325 µM,0.293
same,relative viability,[1]; first compound 20 µM,0.27
same,relative viability,[2]; first compound 0.005 µM,0.793
same,relative viability,[2]; first compound 0.01581 µM,0.787
same,relative viability,[2]; first compound 0.05 µM,0.701
same,relative viability,[2]; first compound 0.1581 µM,0.548
same,relative viability,[2]; first compound 0.5 µM,0.0827
same,relative viability,[3]; first compound 0.005 µM,0.509
same,relative viability,[3]; first compound 0.01581 µM,0.594
same,relative viability,[3]; first compound 0.05 µM,0.356
same,relative viability,[3]; first compound 0.1581 µM,0.415
same,relative viability,[3]; first compound 0.5 µM,0.115
same,relative viability,[4]; first compound 0.005 µM,0.883
same,relative viability,[4]; first compound 0.01581 µM,0.958
same,relative viability,[4]; first compound 0.05 µM,0.786
same,relative viability,[4]; first compound 0.1581 µM,0.595
same,relative viability,[4]; first compound 0.5 µM,0.688
NCI-H2087,relative viability,[1]; first compound 0.2 µM,0.866
same,relative viability,[1]; first compound 0.6325 µM,0.825
same,relative viability,[1]; first compound 2 µM,1.08
same,relative viability,[1]; first compound 6.325 µM,0.894
same,relative viability,[1]; first compound 20 µM,1.09
same,relative viability,[2]; first compound 0.005 µM,0.201
same,relative viability,[2]; first compound 0.01581 µM,0.264
same,relative viability,[2]; first compound 0.05 µM,0.203
same,relative viability,[2]; first compound 0.1581 µM,0.23
same,relative viability,[2]; first compound 0.5 µM,0.187
same,relative viability,[3]; first compound 0.005 µM,0.167
same,relative viability,[3]; first compound 0.01581 µM,0.252
same,relative viability,[3]; first compound 0.05 µM,0.167
same,relative viability,[3]; first compound 0.1581 µM,0.17
same,relative viability,[3]; first compound 0.5 µM,0.207
same,relative viability,[4]; first compound 0.005 µM,1.07
same,relative viability,[4]; first compound 0.01581 µM,0.789
same,relative viability,[4]; first compound 0.05 µM,1.04
same,relative viability,[4]; first compound 0.1581 µM,0.746
same,relative viability,[4]; first compound 0.5 µM,0.253

# Source: the supplement of paper PMC10307832
